Assay results as given in patent US6511963B1 (priority 1992, dated 2003).
Several values for one entry are separate records, joined by “and”; a condition that tells them apart may be missing. Equal values may be shown once. Read-outs that look alike come from different tables or passages of the source. Ends that are not written are not given here. Peptide text beside a SMILES is read from it.

Assays:
NMDA receptor [1] = molecular target: NMDA receptor; design: species or system rat; details: read-out: EC50 of Gly, [3H]MK-801 binding
NMDA receptor [2] = molecular target: T1, NMDA receptor (Rattus norvegicus, UniProt P35439+Q00960); test: biochemical; assay type: binding
T1 construct: other: test compound in the absence of spermine; concentration at 50% of maximum stimulation; % Sti; spermine = 100; other: with and without spermine; absence of spermine; % STI; absence

NMDA receptor [3] = assay type: binding, rat

T1 sequence (Q00960 27-1482, other chains not shown): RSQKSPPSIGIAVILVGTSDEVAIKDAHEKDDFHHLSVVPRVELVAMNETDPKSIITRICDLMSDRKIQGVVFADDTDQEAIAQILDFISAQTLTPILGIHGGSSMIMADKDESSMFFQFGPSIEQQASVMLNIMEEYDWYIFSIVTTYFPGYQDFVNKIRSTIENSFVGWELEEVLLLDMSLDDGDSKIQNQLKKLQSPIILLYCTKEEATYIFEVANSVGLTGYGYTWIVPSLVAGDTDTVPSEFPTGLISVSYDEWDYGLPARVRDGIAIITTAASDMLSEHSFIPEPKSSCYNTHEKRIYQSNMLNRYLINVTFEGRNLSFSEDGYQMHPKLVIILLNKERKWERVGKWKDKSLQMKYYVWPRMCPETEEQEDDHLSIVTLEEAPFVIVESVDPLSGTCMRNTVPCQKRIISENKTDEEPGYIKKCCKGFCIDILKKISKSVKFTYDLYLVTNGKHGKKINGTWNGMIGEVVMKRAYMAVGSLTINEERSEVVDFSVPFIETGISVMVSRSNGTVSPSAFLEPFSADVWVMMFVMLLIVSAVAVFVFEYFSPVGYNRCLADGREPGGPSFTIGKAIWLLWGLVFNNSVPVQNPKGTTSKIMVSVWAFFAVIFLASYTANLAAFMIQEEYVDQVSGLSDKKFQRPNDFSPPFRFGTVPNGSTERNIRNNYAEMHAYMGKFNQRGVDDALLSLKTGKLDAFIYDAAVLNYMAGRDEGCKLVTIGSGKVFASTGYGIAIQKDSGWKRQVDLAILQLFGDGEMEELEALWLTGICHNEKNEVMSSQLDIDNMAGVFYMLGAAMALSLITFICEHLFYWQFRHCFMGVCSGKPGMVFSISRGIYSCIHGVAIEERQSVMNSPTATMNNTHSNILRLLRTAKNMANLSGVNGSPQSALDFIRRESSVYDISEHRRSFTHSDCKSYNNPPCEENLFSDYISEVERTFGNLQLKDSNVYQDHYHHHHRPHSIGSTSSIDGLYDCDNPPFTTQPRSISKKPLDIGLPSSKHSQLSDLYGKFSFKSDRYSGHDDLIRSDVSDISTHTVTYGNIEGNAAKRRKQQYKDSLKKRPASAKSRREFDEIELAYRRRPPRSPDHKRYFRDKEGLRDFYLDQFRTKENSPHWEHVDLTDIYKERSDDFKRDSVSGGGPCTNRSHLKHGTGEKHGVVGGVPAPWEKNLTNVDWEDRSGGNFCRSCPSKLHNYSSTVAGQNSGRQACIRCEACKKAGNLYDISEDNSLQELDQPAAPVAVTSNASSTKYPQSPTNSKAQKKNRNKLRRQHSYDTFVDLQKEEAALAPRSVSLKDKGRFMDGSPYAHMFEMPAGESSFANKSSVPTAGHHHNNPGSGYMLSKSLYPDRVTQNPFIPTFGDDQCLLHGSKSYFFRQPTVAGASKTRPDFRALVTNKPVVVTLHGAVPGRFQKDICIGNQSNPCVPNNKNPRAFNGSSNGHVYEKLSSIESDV

Molecule	% Inh (NMDA receptor [3])	% Sti (NMDA receptor [2])	other results
NCC(=O)O [Gly, glycine]	–	–	EC50 (NMDA receptor [1]): 0.056 µM and 0.058 µM
CC[C@H](C)[C@H](NC(=O)[C@H](CC(C)C)NC(=O)[C@H](CCC(=O)O)NC(=O)[C@H](CCC(N)=O)NC(=O)[C@H](CC(N)=O)NC(=O)[C@H](CCC(=O)O)NC(=O)[C@H](CCC(N)=O)NC(=O)[C@H](CC(C)C)NC(=O)[C@H](CCC(=O)O)NC(=O)[C@H](CCC(=O)O)NC(=O)[C@H](CCC(=O)O)NC(=O)CNC(=O)[C@@H](N)Cc1ccc(O)cc1)C(=O)N[C@@H](CCCNC(=N)N)C(=O)N[C@@H](CCC(=O)O)C(=O)N[C@@H](CCCCN)C(=O)N[C@@H](CO)C(=O)N[C@@H](CC(N)=O)C(N)=O [Tyr^o-Glu3,4,7,10,14-Con-G]	0%	–	stimulation of [3H]MK-801 binding in the absence of spermine (NMDA receptor [2]): stimulated; Emax (NMDA receptor [2]; read-out: % Sti): 31%; inhibition of spermine-induced [3H]MK-801 binding (NMDA receptor [3]): no inhibition
CC[C@H](C)[C@H](NC(=O)[C@H](CC(C)C)NC(=O)[C@H](C)NC(=O)[C@H](CC(C)C)NC(=O)[C@H](C)NC(=O)[C@H](C)NC(=O)[C@H](CCC(N)=O)NC(=O)[C@H](CC(C)C)NC(=O)[C@H](CC(C(=O)O)C(=O)O)NC(=O)[C@H](CC(C(=O)O)C(=O)O)NC(=O)[C@H](CCC(=O)O)NC(=O)CN)C(=O)N[C@@H](CCCNC(=N)N)C(=O)N[C@@H](C)C(=O)N[C@@H](CCCCN)C(=O)N[C@@H](CO)C(=O)N[C@@H](CC(N)=O)C(N)=O [alpha helix ConG, GEggLQAALALJRAKSN] (HELM PEPTIDE1{G.E.[O=C(O)C(C[C@H](N[*:1])C(=O)[*:2])C(=O)O].[O=C(O)C(C[C@H](N[*:1])C(=O)[*:2])C(=O)O].L.Q.A.A.L.A.L.I.R.A.K.S.N.[am]}$$$$V2.0)	100%	–	Emax (NMDA receptor [2]; read-out: % Sti): 0%; IC50 (NMDA receptor [3]; read-out: Spermine IC): 1.5 µM
CC[C@H](C)[C@H](NC(=O)[C@H](CC(C)C)NC(=O)[C@H](CC(C(=O)O)C(=O)O)NC(=O)[C@H](CCC(N)=O)NC(=O)[C@H](CC(N)=O)NC(=O)[C@H](Cc1cc(I)c(O)c(I)c1)NC(=O)[C@H](CCC(N)=O)NC(=O)[C@H](CC(C)C)NC(=O)[C@H](CC(C(=O)O)C(=O)O)NC(=O)[C@H](CC(C(=O)O)C(=O)O)NC(=O)[C@H](CCC(=O)O)NC(=O)CN)C(=O)N[C@@H](CCCNC(=N)N)C(=O)N[C@@H](CC(C(=O)O)C(=O)O)C(=O)N[C@@H](CCCCN)C(=O)N[C@@H](CO)C(=O)N[C@@H](CC(N)=O)C(N)=O [di-iodo-Tyr7-Con-G, GEggLQY(JI)NQgLIRgKSN]	100%	–	Emax (NMDA receptor [2]; read-out: % Sti): 0%; IC50 (NMDA receptor [3]; read-out: Spermine IC): 0.5 µM
Ac-GEggLQgNQgLIRgKSN [Ac-Con-G]	0%	0%	activity, inhibitory or stimulatory (NMDA receptor [2]): no apparent activity
EEELQENQELIREKSN-NH2 [Glu3,4,7,10-Con-G(2-17)]	70%	–	Emax (NMDA receptor [2]; read-out: % STI): 33%; Emax (NMDA receptor [2]; read-out: % Sti): 33%; % INH (NMDA receptor [3]): 70%; IC50 (NMDA receptor [3]; read-out: IC50): 5.4 µM; IC50 (NMDA receptor [3]; read-out: Spermine IC): 5.4 µM
F(pC1)-GEggLQgNQgLIRgKSN (FGEXXLQXNQXLIRXKSN; N-terminal p-chloro-Phe; gamma-carboxyglutamate residues) [Phe(pCl)^o-Con-G]	0%	0%	–
GEYgLQgNQgLIRgKSN [Tyr3-Con-G]	0%	0%	–
GEgALQgNQgLJRgKSN (GEXALQXNQXLIRXKSN; gamma-carboxyglutamate residues) [Ala4-Con-G]	0%	0%	–
GEgELQgNQgLJRgKSN (GEXELQXNQXLIRXKSN; gamma-carboxyglutamate residues) [Glu4-Con-G]	0%	0%	–
GEgS(p)LQgNQgLIRgKSN (GEXSLQXNQXLIRXKSN; phosphoserine) [Ser(p)4-Con-G]	0%	0%	–
GEgSLQgNQgLJRgKSN [Ser4-Con-G]	0%	0%	–
GEggLQgNQgLIRgKSN-OH [Con-G-OH]	0%	0%	activity, inhibitory or stimulatory (NMDA receptor [2]): no activity
QELIREKSN [Glul0,14-Con-G(9-17)]	0%	0%	–
QENQELIREKSN [Glu 7,10,14-Con-G (6-17)]	0%	0%	–
Y(oMe)-GEggLQgNQgLIRgKSN (YGEXXLQXNQXLIRXKSN; O-methyl tyrosine) [Tyr(oMe)^o-Con-G]	0%	0%	–
Y(p)-GEggLQgNQgLIRgKSN (YGEXXLQXNQXLIRXKSN; phosphotyrosine) [Tyr(p)^o-Con-G]	0%	0%	–
Y-GEggLQgNQgLIRgKSN [Tyr^o-Con-G]	0%	0%	–
